The results in this text go back to patent publication US6552006B2, “Immunomodulatory polynucleotides in treatment of an infection by an intracellular pathogen” (The Regents of the University of California, priority 2000, dated 2003).

In test [1] the test system is spleen and liver of M. avium-infected mice. Briefly: Histologic examination of spleen and liver of M. avium-infected mice. It counts as in vivo. How it is done: Sections of the spleen and liver collected from the experimental and control M. avium-infected mice at 2, 4, and 6 weeks post-infection, were fixed overnight in 10% buffered formalin at room temperature, and embedded in paraffin. The paraffin-embedded tissue was further sectioned (5 μm thickness), stained with hematoxylin-eosin and observed under an Olympus microscope. At least three sections from each organ of each of the experimental and control mice were evaluated and representative fields were viewed at 100×.

Test [2] deals with M. avium. In words: Attachment and/or invasion of M. avium into mBMDM, CFU immediately after infection. The format is cell-based, Mycobacterium avium. The conditions noted are these: vs cells treated with M-ODN or medium alone. As to the method: (§1) Alternatively, 5×10^4 mBMDM or hMDM was treated with ISS for 3 days before infection. Macrophages treated with M-ODN or with media alone served as controls. After 3 days, the cells were infected for 2 hrs with M. avium at a macrophage:bacteria ratio of 2:1 for mBMDM or of 1:10 for hMDM, and subsequently cultured in fresh media without antibiotics. To examine attachment and/or invasion of M. avium, the macrophages were lysed immediately after washing, and the number of bacteria were enumerated by the CFU assay. Intracellular growth of M. avium was determined on days 1, 3, and 7 after infection. To account for all the mycobacteria in each group, corresponding lysates were combined and then the number of CFU was determined. To examine the efficacy of anti-mycobacterial treatments, CFU recovered from cells treated with medium alone were considered as 100% growth.
ISS activate macrophages and induce the expression of surface adhesion molecules such as ICAM-1 (Martin-Orozco, et al. (1999) Int. Immun. 11:1111-1118). These molecules may affect the attachment of M. avium or its invasion into mouse bone marrow-derived macrophages (mBMDM). […]

The next test relates to IL-12 (p70). In words: Serum IL-12 (p70) by ELISA in mice. The format is in vivo. How it is done:
Serum obtained from M. avium-infected mice that received ISS or PBS was assayed for IFN-γ and IL-12 by ELISA using mouse IFN-γ and IL-12 (p70) ELISA kits (Endogen, Inc. Woburn, […]), respectively, and following the manufacturer's instructions.

Test [3] concerns M. avium. In words: Intracellular growth of M. avium in mouse bone marrow-derived macrophages (mBMDM) in vitro, CFU assay. The format is cell-based, Mycobacterium avium. To be noted: for % of CFU: 10 μg/ml 72 h prior to infection, medium alone = 100%. How it is done: A previously studied M. avium strain 13 (Hayashi, et al. (1999) Infect. Immun. 67:3558-3565; Meylan, et al. (1990) Infect. Immun. 58:2564-2568), isolated from an AIDS patient at UCSD, San Diego, Calif., was used in all experiments. The organism was cultured on Middlebrook 7H11 agar (Difco Laboratories, Detroit, Mich.) with OADC enrichment at 37° C. in the presence of 5% CO2 for two weeks. Transparent colonies were selectively picked and further cultured on Middlebrook 7H11 plates for two more weeks. The resulting colonies, which were predominantly transparent (>90%), were then collected and washed two times with phosphate-buffered saline (PBS). The bacteria were finally resuspended in Middlebrook 7H9 broth (Difco Laboratories) and the OD600 of the suspension was adjusted to 0.15-0.2. The suspension was aliquoted and stored at −70° C. until use. The number of organisms/ml of this suspension was determined by the colony forming unit (CFU) assay.
The number of CFU in a given sample was determined by colony counting as described previously (Ogata, et al. (1992) Infect. Immun. 60:4720-4725). Serial 10-fold dilutions of total cell lysates or tissue homogenates were performed in PBS. 10 μl of each dilution were plated on Middlebrook 7H11 plates supplemented with OADC enrichment. The plates were incubated up to 14 days at 37° C. The number of colonies was counted every alternate day from day 10 onwards until no new colonies appeared. This yielded the number of CFU/10 μl. The number of CFU in each well was then calculated.
Preparation of Murine Macrophages. Mouse bone marrow-derived macrophages (mBMDM) were prepared from mouse bone marrow using L-cell conditioned media, as described in Martin-Orozco, et al. (1999) […] 11:1111-1118.
as §1
To determine whether treatment with ISS after infection alters M. avium growth, adherent cells were first infected with M. avium for 2 hrs and then these cells were cultured with fresh media containing ISS. Infected cells treated with M-ODN or medium alone served as controls. At day 7, intracellular growth of M. avium was assessed by CFU assay.

Test [4] has as its system indoleamine 2,3-dioxygenase (IDO). Briefly: IDO gene transcription in mBMDM in vitro, semi-quantitative RT-PCR. The format is cell-based, mouse. The conditions noted are these: mBMDM treated 3 days prior to M. avium infection; 4, 8, 24 hrs after infection. As to the method: 1-4×10^6 mBMDM were treated with ISS or M-ODN. After 3 days, the cells were infected with M. avium for 2 hrs. At 2, 24, and 48 hrs after infection, the M. avium-infected macrophages were lysed and total RNA was isolated using the Trizol Reagent (Gibco BRL). The induction of IDO gene transcription was measured by semi-quantitative […]. First-strand cDNA preparation and PCR amplification was carried out using the SuperScript Pre-amplification System (Gibco BRL) and AdvanTaq Plus DNA polymerase (Clontech, San Francisco, Calif.), respectively. PCR products were visualized by electrophoresis on 2% agarose gels. The primer sequences used were as follows:
For in vitro studies mBMDM were treated with ISS for 3 days prior to M. avium infection. Then, cells were lysed at 4, 8, and 24 hrs after infection, total RNA was extracted, and semi-quantitative RT-PCR was performed.

The mark [5] stands for this setting: other experiments, data not shown.

Marks after values point to notes of the source that are not given here.

As for “5′-TGACTGTGAACGTTCGAGATGA-3′ (SEQ ID NO:1) [ISS]”, the “histopathology of the livers” value in test [1] (vs PBS-treated infected mice) is “no significant histopathological differences”. Further, the “granulomas in the spleen” value in test [1] (week 4, vs infected mice treated with PBS) was “notably smaller in size and surrounded by mononuclear cells”. Also, in test [1] (week 6, vs PBS-treated infected mice), the “granulomas in the spleens” value is on record as “not significantly different”. In the test with M. avium [2], the “CFU recovered immediately from cells treated before infection (attachment/invasion)” value is on record as “not significantly different”. Further, in the test on IL-12 (p70) (M. avium-infected mice (10^6 organisms/mouse), 2, 4, 6 weeks, below ELISA detection), the “serum IL-12 levels” value was below 5 pg/mL. Besides, the “time for serum IL-12 to attain basal levels post injection” value in the test on IL-12 (p70) (setting [5]) was at most 3 weeks. The “time of peak serum level of IL-12 after administration” value with IL-12 (p70) (setting [5]) was found to be 1 days. For the same substance, the “inhibition of intracellular growth of M. avium in mBMDM from knockout mice” value with M. avium [3] (NADPH oxidase−/−, iNOS−/−, TNF-α−/−, IL-12p40−/−, IFN-α/βR−/−, IFN-γR−/− mBMDM, ISS 3 days before infection) is on record as 60-85%. For the same substance, the “% of CFU” value was 10.9 ± 01.7^b % in the test with M. avium [3] (mBMDM from IFN-αR−/− 129S6/SvEv, day 7); 7.6 ± 01.3^b % in the test on M. avium [3] (mBMDM from IFN-γR−/− 129S6/SvEv, day 7); 26.4 ± 10.1^b % with M. avium [3] (mBMDM from IL-12 p40−/− C57B1/6, day 7); 37.3 ± 4.6^b % with M. avium [3] (mBMDM from INOS−/− C57B1/6, day 7); 11.4 ± 1.5^b % in the test with M. avium [3] (mBMDM from NADPH oxidase−/− (gp91 phox−/−) C57B1/6, day 7); 24.0 ± 6.0^b % with M. avium [3] (mBMDM from TNF-α−/− C57B1/6, day 7). The “% of CFU” value in the test with M. avium [3] (mBMDM from Wild type 129S6/SvEV, day 7) was 17.0 ± 4.0^b %; in the test with M. avium [3] (mBMDM from Wild type C57B1/6, day 7) it was 18.2 ± 7.3^b %. The “reduction of bacterial growth in mBMDM” value with M. avium [3] (mBMDM infected first, then treated, ISS 10 μg/ml, CLA 0.1 μg/ml, 7 days after infection, compared to medium alone) is reported as 68%. In the test with M. avium [3] (treated 72 hrs before infection, day 7), the “inhibition of intracellular growth of M. avium in mBMDM” value stood at 80%. The “decrease of intracellular growth of M. avium in mBMDM” value in the test on M. avium [3] (treated for 7 days starting two hours after infection, vs M-ODN or medium alone) is reported as 68%. In addition, the “optimal induction of IDO gene transcription” value in test [4] is “require both treatment with ISS and M. avium infection”.
